Test results from patent publication US9066958B2 (priority 2006, dated 2015).
Read-outs that look alike come from different tables or passages of the source.

Experiments:
[1] = Stability of solvent with storage; format: physicochemical
[2] = Stability of vitamin D in vehicle; format: physicochemical; conditions: result in words; only cells marked # are direct experimental observation
Text: The liquid has minimal sensory effects i.e. it has minimal smell, taste, or texture i.e. no oily feel. The liquid is biologically natural in the context of breast-feeding, and is safe for infant consumption. The liquid per se is not subject to rancidity or oxidation over the shelf-life of the composition. […] One drop of each liquid was applied onto a nipple to determine whether it would adhere well enough so that no portion of it would drip off in a timeframe of 10 seconds. The results of these experimental observations are presented in Table 1 along with further considerations regarding the parameters desired for this invention.

Row | Compound | Stability of solvent with storage [1] | Stability of solvent with storage ([1]; direct experimental observation) | Stability of vitamin D in vehicle [2]
1 | Sesame oil | Oxidizes/ |  | 
2 | CC(=O)Oc1c(C)c(C)c2c(c1C)CCC(C)(CCC[C@H](C)CCC[C@H](C)CCCC(C)C)O2 (stereo partly shown) [Eitamin E acetate oil] | Stable |  | 
3 | O [Water] | Stable |  | 
4 | Canola oil | Oxidizes/ |  | 
5 | CCO [Ethanol] |  | Evaporates | Solvent
6 | Medium-chain triglyceride | Stable |  | 
